# Where two headings read alike, the source gives them in different places.
# Key:
# [1] = Octan-1-ol/PBS partition coefficient; type: physicochemical; details: 200 μM, room temperature, 1 h, means±SEM of three
# Experimental: (§1) The IC50 values for inhibition of lipid peroxidation were determined in rat brain homogenates, and are means±SEM or range of determinations on 2–3 brain preparations. Octan-1-ol/PBS partition coefficients are means±SEM for three independent determinations. N.D. not determined. Partition coefficients were determined by mixing 200 μM of the compound in 2 ml water-saturated octanol-1-ol with 2 ml octanol-saturated-PBS at room temperature for 1 h, then the two layers were separated by brief centrifugation and their concentrations determined spectrophotometrically from standard curves prepared in PBS or octanol. To measure antioxidant efficacy four rat brains were homogenised in 15 ml 40 mM potassium phosphate (pH 7.4), 140 mM NaCl at 4° C., particulate matter was pelleted (1,000×g at 4° C. for 15 min) and washed once and the combined supernatants stored frozen. Aliquots were rapidly thawed and 5 mg protein suspended in 800 μl PBS containing antioxidant or ethanol carrier and incubated at 37° C. for 30 min. Thiobarbituric acid reactive species (TBARS) were quantitated at 532 nm by adding 200 μl conc. HClO4 and 200 μl 1% thiobarbituric acid to the incubation, heating at 100° C. for 15 min and then cooling and clarification by centrifugation (10,000×g for 2 min).
# rat brain homogenates = assay: Inhibition of lipid peroxidation in rat brain homogenates (TBARS assay); type: biochemical
# Experimental: The rat brain homogenates were incubated with or without various concentrations of the test compounds (compound 1; native Vitamin E (α-tocopherol), bromobutyl triphenylphosphonium bromide, Trolox (a water soluble form of Vitamin E) and compound 2, ie2-(2-bromoethyl)-3,4-dihydro-2,5,7,8-tetramethyl-2H-1-benzopyran-6-ol, the precursor of compound 1 (“Brom Vit E”)) and the oxidative damage occurring over the incubation was quantitated using the TBARS assay (Stocks et al., 1974, Clin Sci Mol Med 47,215–222). From this the concentration of compound required to inhibit oxidative damage by 50% was determined. In this system 210 nM compound 1 inhibited oxidative stress by 50% while the corresponding value for native Vitamin E was 36 nM. The value for bromobutyltriphenylphosphonium bromide, which contains the triphenylphosphonium moiety but not the antioxidant Vitamin E moiety was 47 μM. […] Further details of the experimental procedures and results are set out below.
# as §1
# [2] = target: T1, beef heart mitochondrial membranes, Complex II (Bos taurus, UniProt P35720+Q3T189+Q95123); assay: Reduction of mitoquinone by beef heart mitochondrial membranes with succinate (Complex II); type: biochemical
# T1 construct: from tissue; host or cells: beef heart mitochondrial membranes
# Experimental: FIGS. 12A to 12D show reactions of [10-(6′-ubiquinonyl)decyltriphenylphosphonium bromide] (“mitoquinone”) and the reduced form of the compound (“mitoquinol”) with mitochondrial membranes. Beef heart mitochondrial membranes (20 μg/ml) were suspended in 50 mM sodium phosphate, pH 7.2 at 20° C. In panel A rotenone and antimycin were present and for the t=0 scan, then succinate (5 mM) was added and scans repeated at 5 minute intervals as indicated. In panel B A275 was monitored in the presence of rotenone and antimycin and then mitoquinone (50 μM) was added, followed by succinate (5 mM) and malonate (20 mM) where indicated. In Panel C rotenone, ferricytochrome c (50 μM) and malonate (20 mM) were present, A275 was monitored and mitoquinol (50 μM) and myxathiazol (10 μM) were added where indicated. In panel D A550 was monitored and the experiment in Panel C was repeated in the presence of KCN. Addition of myxathiazol inhabited this rate by about 60–70%.
# To determine whether the mitochondrial respiratory chain could also oxidise or reduce the compound mitoquinone was incubated with beef heart mitochondrial membranes (FIG. 12). In panel A the spectrum of fully oxidised mitoquinone in the presence of antimycin inhibited membranes is shown (t=0; FIG. 12A). Addition of succinate led to the gradual reduction of the […] as measured by repeating the measurement every five minutes and showing that the peak at 275 nm gradually disappeared, the presence of antimycin prevented the oxidation of the quinol by mitochondrial complex III.
# The reduction of mitoquinone can be followed continuously at A275 nm (FIG. 12B). […] The rate of reduction of mitoquinone was 51±9.9 nmol/min/mg protein, which compares with the rate of reduction of cytochrome c by succinate in the presence of KCN of 359 nmol/min/mg. Allowing for the 2 electrons required for mitoquinone reduction compared with 1 for cytochrome c the rate of electron flux into the mitoquinone pool is of similar order to the electron flux through the respiratory chain.
# [3] = system: pentane extracted beef heart mitochondria; assay: Reactions with pentane-extracted beef heart mitochondria; type: biochemical; details: for restoration of NADH oxidation: pentane extracted beef heart mitochondria, NADH 125 μM, 50 μM compound
# Experimental: Pentane extracted beef heart mitochondria (100 μg protein/ml) were suspended in 50 mM sodium phosphate, pH 7.2 at 20° C. In Panel A NADH (125 μM) was added and A340 was monitored and ubiquinone-1 (UQ-1; 50 μM added where indicated. This was repeated in Panel b, except that mitoubiquinone (50 μM) was added. In Panel C pentane extracted mitochondria were incubated with mitoquinone (50 μM), A275 was monitored and succinate (5 mM) and malonate (20 mM) added where indicated. In Panel D pentane-extracted mitochondria were incubated with NADH (125 μM), ferricytochrome c (50 μM) and A550 was monitored and mitoquinone (50 μM) was added where indicated. Addition of myxathiazol inhibited the rate of reduction by about 60–70%;
# Mitoquinone/ol may be picking up and donating electrons directly from the active sites of the respiratory complexes, or it could be equilibrating with the endogenous mitochondrial ubiquinone pool. To address this question the endogenous ubiquinone pool was removed from beef heart mitochondria by pentane extraction.
# rat liver mitochondria [4] = assay: Reduction of mitoquinone by intact mitochondria (A275); type: biochemical
# Experimental: Rat liver mitochondria (100 μg/ml) were incubated in 120 mM KCl, 10 mM HEPES, 1 mM EGTA, pH 7.2 at 20° C. and A275 monitored. In panel A rotenone and succinate (5 mM) were present and mitoquinone (50 μM) was added where indicated. This experiment was repeated in the presence of malonate (20 mM) or FCCP ([…]). In panel B glutamate and malate (5 mM of each) were present from the start and mitoquinone (50 μM) was added where indicated. This experiment was repeated in the presence of FCCP or with rotenone and FCCP.
# ferricytochrome c = ferricytochrome c (Homo sapiens, UniProt P99999); assay: Reactions of mitoquinone in the absence of mitochondrial membranes; type: biochemical
# Experimental: FIGS. […] In panel A rotenone and antimycin were present and for the t=0 scan, then succinate (5 mM) was added and scans repeated at 5 minute intervals as indicated. In panel B A275 was monitored in the presence of rotenone and antimycin and then mitoquinone (50 μM) was added, followed by succinate (5 mM) and malonate (20 mM) where indicated. In Panel C rotenone, ferricytochrome c (50 μM) and malonate (20 mM) were present, A275 was monitored and mitoquinol (50 μM) and myxathiazol (10 μM) were added where indicated. In panel D A550 was monitored and the experiment in Panel C was repeated in the presence of KCN. Addition of myxathiazol inhabited this rate by about 60–70%.
# rat liver mitochondria [5] = system: rat liver mitochondria
# rat liver mitochondria [6] = assay: Toxicity of mitoquinol to isolated mitochondria (membrane potential, respiration rate)
# Experimental: In A rat liver mitochondria energised with succinate were incubated with various concentrations of mitoquinol and the membrane potential determined as a percentage of control incubations. In B the respiration rate of succinate energised mitochondria under state 4 (black), state 3 (white) and uncoupled (stippled) conditions, as a percentage of control incubations.
# The next assays were to determine the toxicity of these compounds to mitochondria and cells. To determine the toxicity to isolated mitochondria the effect on membrane potential and respiration rate were measured (FIG. 16).
# rat liver mitochondria [7] = assay: Uptake of radiolabelled mitoquinol by energised mitochondria; type: in vitro ADME; details: tritiated compound, reversed by FCCP
# Experimental: The next step was to see if mitoquinol was accumulated by energised mitochondria. To do this a tritiated version of the compound was made, incubated with energised mitochondria and the amount taken up into the mitochondria determined.
# [8] = target: T2, beef heart mitochondrial membranes, Complex III (Bos taurus, UniProt P00157+P13272); assay: Oxidation of mitoquinol by beef heart mitochondrial membranes (Complex III) and reduction of cytochrome c; type: biochemical
# T2 construct: from tissue; host or cells: beef heart mitochondrial membranes
# [9] = Stability of the quinol form in air; type: physicochemical
# Experimental: The quinone was reduced to the quinol by taking a mixture of crude quinone and quinol (73 mg, ca. 3:1 by 1H NMR) in methanol (1 mL) was added NaBH4 (21 mg, 0.55 mmol). The mixture was stirred slowly under an argon atmosphere for 10 min. Excess NABH4 was quenched with 5% HBr (0.2 mL) and the mixture extracted with CH2Cl2. The organic extract was washed with H2O (3×5 mL). Solvent was removed under reduced pressure, giving a mixture of quinone and quinol (ca 1:5 by ^1H NMR) as a pale yellow solid (55 mg). For routine preparation of the quinol form the ethanolic solution, dissolve in 5 vols of water, (=1 ml) add a pinch of NaBH4 leave on ice in the dark for 5 min, then extract 3×0.5 ml dichloromethane, Wash with water/HCl etc blow off in nitrogen, dissolve in same vol of etoh and take spectrum and store at −80 under argon. Yield about 70–80%. […] Collect the upper organic phase and evaporate to dryness under a stream of N2 and dissolve in 1 ml ethanol acidified to pH 2.
# [10] = means±SEM or range, 2–3 brain preparations, read-out: IC50 for inhibition of lipid peroxidation
# [11] = TBARS, read-out: concentration that inhibited oxidative stress by 50%
# T1 sequence (P35720 30-169): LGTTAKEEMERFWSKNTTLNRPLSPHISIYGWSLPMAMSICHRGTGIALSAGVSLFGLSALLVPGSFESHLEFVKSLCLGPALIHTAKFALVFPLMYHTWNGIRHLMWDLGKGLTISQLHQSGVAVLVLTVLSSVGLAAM
# T1 sequence (Q95123 56-158): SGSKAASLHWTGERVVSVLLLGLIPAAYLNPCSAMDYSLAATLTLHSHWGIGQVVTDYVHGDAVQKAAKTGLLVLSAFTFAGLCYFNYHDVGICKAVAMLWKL
# T1 sequence (Q3T189 29-280): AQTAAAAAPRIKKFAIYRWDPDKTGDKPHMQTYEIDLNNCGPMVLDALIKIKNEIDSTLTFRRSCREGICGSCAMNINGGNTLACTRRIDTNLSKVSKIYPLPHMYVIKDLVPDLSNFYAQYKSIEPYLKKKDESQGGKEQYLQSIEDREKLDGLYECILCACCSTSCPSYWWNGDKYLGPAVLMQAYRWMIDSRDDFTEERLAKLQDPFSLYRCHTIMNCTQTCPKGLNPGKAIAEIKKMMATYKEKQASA
# T1 sequence (P31039 44-665 partner): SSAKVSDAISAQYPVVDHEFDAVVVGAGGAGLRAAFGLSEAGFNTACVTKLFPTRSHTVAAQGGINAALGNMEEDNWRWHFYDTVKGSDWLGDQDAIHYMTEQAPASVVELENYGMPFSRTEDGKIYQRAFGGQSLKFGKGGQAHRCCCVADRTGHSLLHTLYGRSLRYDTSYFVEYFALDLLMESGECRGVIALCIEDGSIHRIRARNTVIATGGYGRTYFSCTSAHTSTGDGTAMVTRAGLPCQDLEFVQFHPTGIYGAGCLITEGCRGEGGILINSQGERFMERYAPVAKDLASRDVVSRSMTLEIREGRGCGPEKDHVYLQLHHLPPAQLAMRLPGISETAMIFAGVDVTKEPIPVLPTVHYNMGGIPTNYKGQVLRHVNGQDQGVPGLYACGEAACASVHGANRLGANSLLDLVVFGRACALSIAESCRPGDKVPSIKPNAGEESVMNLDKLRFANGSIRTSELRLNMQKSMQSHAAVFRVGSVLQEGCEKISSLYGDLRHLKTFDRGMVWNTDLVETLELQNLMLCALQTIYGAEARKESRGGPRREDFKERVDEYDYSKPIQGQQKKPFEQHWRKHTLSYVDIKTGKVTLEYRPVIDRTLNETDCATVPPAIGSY
# ferricytochrome c, sequence (P99999 whole entry): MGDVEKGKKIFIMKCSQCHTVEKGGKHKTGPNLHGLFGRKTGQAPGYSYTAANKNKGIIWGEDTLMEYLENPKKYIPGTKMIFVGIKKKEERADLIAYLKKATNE
smiles,measurement,setting,value
"Cc1c(C)c2c(c(C)c1O)CCC(C)(CCBr)O2 (stereo not drawn) [Bromo Vit E, 2-(2-bromoethyl)-3,4-dihydro-6-hydroxy-2,5,7,8-tetramethyl-2H-1-benzopyran]",Octanol:PBS partition coefficient,[1],33.1 ± 4.4
same,IC50,rat brain homogenates; [10],0.045 ± 0.026 µM
"COC1=C(OC)C(=O)C(CCCCCCCCCC[P+](c2ccccc2)(c2ccccc2)c2ccccc2)=C(C)C1=O [mitoquinone, 10-(6′-ubiquinonyl)decyltriphenylphosphonium bromide]",proportion reduced by succinate,"[2]; antimycin inhibited beef heart membranes, succinate 5 mM",about 23%
same,Eh corresponding to proportion reduced,[2]; equilibration with succinate/fumarate couple,about +8 mV
same,rate of reduction of mitoquinone,"[2]; rotenone inhibited membranes, succinate",51±9.9 nmol/min/mg protein
same,restoration of NADH oxidation,[3],restored NADH oxidation
same,inhibition of NADH-ferricytochrome c activity by myxathiazol,"[3]; pentane extracted mitochondria, mitoquinone 50 μM",60–70%
same,reduction by intact energised mitochondria,"rat liver mitochondria [4]; rat liver mitochondria, 50 μM",rapidly reduced
same,decrease of rate of reduction with FCCP,rat liver mitochondria [4]; uncoupler FCCP present,2–3 fold
same,reaction on mixing with 50 μM ferricytochrome c,"ferricytochrome c; 50 μM, A550",some reduction of A550
same,reaction with succinate or NADH in the absence of mitochondrial membranes,ferricytochrome c; no membranes,no reaction
"C[P+](c1ccccc1)(c1ccccc1)c1ccccc1 [TPMP, methyltriphenylphosphonium, reference compound]",proportion membrane-bound within mitochondria,rat liver mitochondria [5],About 60%
same,change in A275,rat liver mitochondria [4]; 50 μM added instead of mitoquinone,did not lead to changes in A275
"COC1=C(OC)C(=O)C(CC=C(C)C)=C(C)C1=O [ubiquinone-1, reference compound]",restoration of NADH oxidation,[3],partially restored
"Cc1c(C)c2c(c(C)c1O)CC[C@@](C)(CCC[C@H](C)CCC[C@H](C)CCCC(C)C)O2 [α-Tocopherol, α-tocopherol]",Octanol:PBS partition coefficient,[1],27.4 ± 1.0
same,IC50,rat brain homogenates; [11],0.036 µM
"BrCCCC[P+](c1ccccc1)(c1ccccc1)c1ccccc1.[Br-] [BrBTP, bromobutyltriphenylphosphonium bromide]",Octanol:PBS partition coefficient,[1],3.83 ± 0.22
same,IC50,rat brain homogenates; [11],47 µM
"COc1c(O)c(C)c(CCCCCCCCCC[P+](c2ccccc2)(c2ccccc2)c2ccccc2)c(O)c1OC [mitoquinol, 10-(6′-ubiquinolyl)decyltriphenylphosphonium bromide]",effect on mitochondrial function,rat liver mitochondria [6]; 10 μM,little effect on mitochondrial function
same,effect on mitochondrial function,rat liver mitochondria [6]; 25 μM and above,some uncoupling and inhibition of respiration
same,accumulation by energised mitochondria,rat liver mitochondria [7],accumulated rapidly
same,inhibition of rate by myxathiazol,"[8]; FIG. 12 panel D, KCN present, myxathiazol 10 μM",60–70%
same,initial rate of oxidation of mitoquinol,"[8]; membranes inhibited with rotenone and malonate, mean of 2 +/- range",about 89±9 mmol mitoquinol/min/mg protein
same,initial rate of reduction of cytochrome c on addition of mitoquinol,"[8]; membranes supplemented with ferricytochrome c, mean+/-range",about 93+/−13 nmol/min/mg
same,cytochrome c reduction not blocked by myxathiazol,[8]; myxathiazol,30–40%
same,stability in air,[9],Oxidises rapidly in air
Cc1c(C)c2c(c(C)c1O)CCC(C)(C(=O)O)O2 (stereo not drawn) [Trolox],IC50,rat brain homogenates; [10],18.5 ± 5.9 µM
